Results: PMC6958387, “Biological Evaluation of Arylsemicarbazone Derivatives as Potential Anticancer Agents” (Pharmaceuticals, 2019)

Experiments:
[1] = target: GSK3 α/β; assay: Kinase inhibition assay (ADP-Glo); type: biochemical, Sus scrofa domesticus; settings: 10 µM ATP
Procedure: SscGSK-3α/β (Sus scrofa domesticus, glycogen synthase kinase-3, affinity purified from porcine brain) was assayed in buffer A with 0.010 µg/µL of GS-1 peptide, a GSK-3-selective substrate ([…]pEDEEE, “Sp” stands for phosphorylated serine).

[2] = target: T1, AURKB (Homo sapiens, UniProt Q96GD4); assay: Kinase inhibition assay (ADP-Glo); type: biochemical; settings: 10 µM ATP
T1 construct: purchased SignalChem A31-10G; host or cells: Sf9 insect cells (baculovirus)
T1 sequence (Q96GD4 whole entry): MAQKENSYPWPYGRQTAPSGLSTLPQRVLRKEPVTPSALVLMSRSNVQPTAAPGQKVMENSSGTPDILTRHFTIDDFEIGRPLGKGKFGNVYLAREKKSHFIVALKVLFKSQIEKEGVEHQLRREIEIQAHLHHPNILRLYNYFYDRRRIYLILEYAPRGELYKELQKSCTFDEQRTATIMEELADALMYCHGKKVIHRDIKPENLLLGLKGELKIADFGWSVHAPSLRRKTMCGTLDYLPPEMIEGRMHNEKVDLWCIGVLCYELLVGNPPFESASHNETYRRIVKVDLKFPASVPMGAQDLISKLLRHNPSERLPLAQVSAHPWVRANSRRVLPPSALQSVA

[3] = system: Peripheral Blood Mononuclear Cells (PBMCs); assay: MTT cytotoxicity in normal cells, 72 h; type: cell-based, human; settings: Homo sapiens, PBMC, 72 h of incubation
Procedure: In order to evaluate the cytotoxic potential in normal cells, all the derivatives were tested against Peripheral Blood Mononuclear Cells (PBMCs) and the most promising compounds were again compounds 3c and 4a, which offered more selectivity against the cancer cells.
Mononuclear cells were obtained from the peripheral blood of healthy volunteers by heparin tube collection and isolated by Ficoll-Histopaque gradient centrifugation. After centrifugation, the cells were harvested, washed and resuspended in RPMI 1640 medium supplemented with 20% fetal bovine serum, 2 mM glutamine, 100 U/mL penicillin and 100 μg/mL streptomycin (Gibco™ Life Technologies, Waltham, MA, USA). The phytohemagglutinin mitogen 2% was also added into the culture medium. After that, using the neubauer chamber, the cells were counted and plated in a 96-well plate at a concentration of 10^6 cells/mL and then were maintained for overnight under incubation at 37 °C and 5% CO2 [65].
(§1) The evaluation of the cytotoxicity of the compounds was performed by the method of 3-(4,5-dimethyl-2-thiazolyl)-2,5-diphenyl-2H-tetrazolium bromide (MTT) (Sigma Aldrich Co., St. Louis, MO, USA). To perform the assay the cells were seeded in 96-well plates at the following concentrations: HL-60 and K562 (0.3 × 10^6 cells/mL); MOLT-4 and PBMC (10^6 cells/mL); NCI-H292, HT-29, HEp-2 e MCF-7 (10^5 cells/mL). Briefly, the compounds previously dissolved in DMSO (dimethylsulfoxide, Vetec, São Paulo, Brazil), were diluted in medium and added to each well at the desired concentrations. For the calculation of the concentration that inhibits 50% of cell growth (IC50) the compounds were serially diluted to obtain the final concentrations between 0.19–25 μg/mL. Doxorubicin was used as the standard in the concentration range between (0.078–10 μg/mL). After 72 h of contact of the cells with the compounds, it was added to each well 25 μL of MTT solution (5 mg/mL). Plates were left for another 3 h in incubator at 37 °C and at the end of that period the supernatant was aspirated. To perform the reading, 100 μL of DMSO was added in each well for the dissolution of the formazan crystals. The amount of formazan was measured by reading the plate at 560 nm absorbance. The IC50 was calculated from the nonlinear regression in the Prisma 7.0 software (GraphPad, San Diego, CA, USA). Each sample was tested in triplicate in three independent experiments.

[4] = target: T2, CLK1 (Mus musculus, UniProt P22518); assay: Kinase inhibition assay (ADP-Glo); type: biochemical; settings: 10 µM ATP
T2 construct: made in house; host or cells: bacteria
T2 sequence (P22518 whole entry): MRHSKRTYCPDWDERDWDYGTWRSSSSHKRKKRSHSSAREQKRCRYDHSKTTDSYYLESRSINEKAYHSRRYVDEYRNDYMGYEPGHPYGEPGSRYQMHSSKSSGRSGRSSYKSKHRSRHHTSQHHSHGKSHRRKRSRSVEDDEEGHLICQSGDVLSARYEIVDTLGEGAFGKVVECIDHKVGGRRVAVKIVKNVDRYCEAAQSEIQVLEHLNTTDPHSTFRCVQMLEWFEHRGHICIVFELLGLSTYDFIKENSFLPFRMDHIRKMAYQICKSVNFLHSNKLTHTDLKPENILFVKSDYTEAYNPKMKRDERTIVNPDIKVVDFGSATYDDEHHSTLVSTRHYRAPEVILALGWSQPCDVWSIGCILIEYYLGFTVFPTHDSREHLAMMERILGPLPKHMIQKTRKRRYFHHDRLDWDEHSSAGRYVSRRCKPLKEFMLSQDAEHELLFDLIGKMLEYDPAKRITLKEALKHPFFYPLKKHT
Procedure: MmCLK1 (from Mus musculus, recombinant, expressed in bacteria) was assayed in buffer A with 0.027μg/µL of the following peptide: GRSRSRSRSRSR as substrate.

[5] = target: T3, HASPIN (Homo sapiens, UniProt Q8TF76); assay: Kinase inhibition assay (ADP-Glo); type: biochemical; settings: 10 µM ATP
T3 construct: kinase domain, amino acids 470 to 798; made in house; host or cells: bacteria
T3 sequence (Q8TF76 470-798): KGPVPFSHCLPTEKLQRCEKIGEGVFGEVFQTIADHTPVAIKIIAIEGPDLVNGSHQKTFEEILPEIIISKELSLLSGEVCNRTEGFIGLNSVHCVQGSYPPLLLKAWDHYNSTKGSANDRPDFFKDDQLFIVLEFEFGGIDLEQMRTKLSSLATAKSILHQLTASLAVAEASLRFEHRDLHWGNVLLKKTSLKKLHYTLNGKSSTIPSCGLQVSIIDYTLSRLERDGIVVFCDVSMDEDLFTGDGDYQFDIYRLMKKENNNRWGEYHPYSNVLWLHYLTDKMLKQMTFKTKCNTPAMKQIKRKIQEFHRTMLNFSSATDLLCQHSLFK
Procedure: HsHASPIN (human, kinase domain, amino acids 470 to 798, recombinant, expressed in bacteria) was assayed in buffer A with 0.007 µg/µL of Histone H3 (1-21) peptide ([…]) as substrate;

[6] = target: CDK2/CyclinA (Homo sapiens, UniProt P24941); assay: Kinase inhibition assay (ADP-Glo); type: biochemical; settings: 10 µM ATP
Procedure: HsCDK2/CyclinA (human, cyclin-dependent kinase-2, kindly provided by Dr. A. Echalier-Glazer, Leicester, UK) was assayed in buffer A with 0.8 µg/µL of histone H1 as substrate.

[7] = system: NCI-H292; assay: MTT cytotoxicity, 72 h; type: cell-based, human; settings: Homo sapiens, NCI-H292, 72 h of incubation
Procedure: (§2) The cytotoxicity assessment was performed against three human cancer cell lines in suspension (K562, HL-60 and MOLT-4) and four adhered (HEp-2, NCI-H292, HT-29 and MCF-7).
(§3) The cells were obtained from the Cell Bank of Rio de Janeiro and maintained in the Laboratory of Cell Culture of the Department of Antibiotics of the Federal University of Pernambuco. The lines K562 (myeloblastic leukaemia), HL-60 (promyelocytic leukemia) and MOLT-4 (lymphoblastic leukemia) were cultured in RPMI 1640 medium and the lines HEp-2 (larynx carcinoma), NCI-H292 (lung carcinoma), HT-29 (colon adenocarcinoma) and MCF-7 (breast adenocarcinoma) were cultured in DMEM medium, supplemented with 10% fetal bovine serum, 2 mM glutamine, 100 U/mL penicillin and 100 μg/mL streptomycin (Gibco™ Life Technologies), at 37 °C and 5% CO2.
as §1

[8] = system: HT-29; assay: MTT cytotoxicity, 72 h; type: cell-based, human; settings: Homo sapiens, HT-29, 72 h of incubation
Procedure: as §2, §3, §1

[9] = system: MCF-7; assay: MTT cytotoxicity, 72 h; type: cell-based, human; settings: Homo sapiens, MCF7, 72 h of incubation
Procedure: as §2, §3, §1

[10] = system: HEp-2; assay: MTT cytotoxicity, 72 h; type: cell-based, human; settings: Homo sapiens, HEp-2, 72 h of incubation
Procedure: as §2, §3, §1

[11] = system: HL-60; assay: MTT cytotoxicity, 72 h; type: cell-based, human; settings: Homo sapiens, HL-60; MTT, 72 h of incubation
Procedure: as §2, §3, §1

[12] = system: K562; assay: MTT cytotoxicity, 72 h; type: cell-based, human; settings: Homo sapiens, K562, 72 h of incubation
Procedure: as §2, §3, §1

[13] = system: MOLT-4; assay: MTT cytotoxicity, 72 h; type: cell-based, human; settings: Homo sapiens, MOLT-4, 72 h of incubation
Procedure: as §2, §3, §1

[14] = target: T4, PIM1 (Homo sapiens, UniProt P11309); assay: Kinase inhibition assay (ADP-Glo); type: biochemical; settings: 10 µM ATP
T4 construct: made in house; host or cells: bacteria
T4 sequence (P11309 whole entry): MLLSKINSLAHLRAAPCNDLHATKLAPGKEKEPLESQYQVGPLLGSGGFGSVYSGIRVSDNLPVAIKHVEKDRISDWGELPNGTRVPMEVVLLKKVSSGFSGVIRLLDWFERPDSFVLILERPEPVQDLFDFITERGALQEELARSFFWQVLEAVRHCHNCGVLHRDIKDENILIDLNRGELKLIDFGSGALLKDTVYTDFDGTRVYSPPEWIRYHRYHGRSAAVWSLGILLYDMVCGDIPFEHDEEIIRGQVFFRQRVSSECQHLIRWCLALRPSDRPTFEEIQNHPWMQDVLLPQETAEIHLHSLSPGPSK
Procedure: HsPIM1 (human proto-oncogene, recombinant, expressed in bacteria) was assayed in buffer B with 0.8 µg/µL of histone H1 (Sigma #H5505) as substrate.

[15] = target: T5, DYRK1A (Rattus norvegicus, UniProt Q63470); assay: Kinase inhibition assay (ADP-Glo); type: biochemical; settings: 10 µM ATP
T5 construct: amino acids 1 to 499 including the kinase domain; made in house; host or cells: bacteria
Procedure: RnDYRK1A (Rattus norvegicus, amino acids 1 to 499 including the kinase domain, recombinant, expressed in bacteria, DNA vector kindly provided by Dr. W. Becker, Aachen, Germany) was assayed in buffer A with 0.033 μg/µL of the following peptide: KKISGRLSPIMTEQ as substrate.

[16] = target: T6, CDK5/p25 (Homo sapiens, UniProt Q00535); assay: Kinase inhibition assay (ADP-Glo); type: biochemical; settings: 10 µM ATP
T6 construct: made in house; host or cells: bacteria
T6 sequence (Q00535 whole entry): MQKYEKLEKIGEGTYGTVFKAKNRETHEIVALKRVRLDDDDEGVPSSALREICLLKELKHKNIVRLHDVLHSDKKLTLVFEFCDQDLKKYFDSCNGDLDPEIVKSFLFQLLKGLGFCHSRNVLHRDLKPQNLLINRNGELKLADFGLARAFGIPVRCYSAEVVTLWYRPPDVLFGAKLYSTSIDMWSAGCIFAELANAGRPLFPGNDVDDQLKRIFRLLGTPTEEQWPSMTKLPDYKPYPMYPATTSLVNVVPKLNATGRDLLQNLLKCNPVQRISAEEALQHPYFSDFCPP
T6 sequence (Q15078 99-307 partner limits assumed): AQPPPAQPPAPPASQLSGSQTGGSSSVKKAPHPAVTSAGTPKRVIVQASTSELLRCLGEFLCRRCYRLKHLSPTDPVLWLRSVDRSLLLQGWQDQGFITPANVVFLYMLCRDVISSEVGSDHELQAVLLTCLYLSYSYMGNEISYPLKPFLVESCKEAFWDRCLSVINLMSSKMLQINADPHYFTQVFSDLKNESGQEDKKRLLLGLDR
Procedure: HsCDK5/p25 (human, recombinant, expressed in bacteria) was assayed in buffer A, with 0.8 µg/µL of histone H1 as substrate.

[17] = target: CK1δ/ε; assay: Kinase inhibition assay (ADP-Glo); type: biochemical, Sus scrofa domesticus; settings: 10 µM ATP
Procedure: SscCK1δ/ε (Sus scrofa domesticus, casein kinase 1δ/ε, affinity purified from porcine brain) was assayed in buffer A, with 0.022 μg/μL of the following peptide: RRKHAAIGSpAYSITA (“Sp” stands for phosphorylated serine) as CK1-specific substrate.

[18] = target: CDK9/CyclinT (Homo sapiens, UniProt P50750); assay: Kinase inhibition assay (ADP-Glo)
Sequence of CDK9/CyclinT (P50750 whole entry): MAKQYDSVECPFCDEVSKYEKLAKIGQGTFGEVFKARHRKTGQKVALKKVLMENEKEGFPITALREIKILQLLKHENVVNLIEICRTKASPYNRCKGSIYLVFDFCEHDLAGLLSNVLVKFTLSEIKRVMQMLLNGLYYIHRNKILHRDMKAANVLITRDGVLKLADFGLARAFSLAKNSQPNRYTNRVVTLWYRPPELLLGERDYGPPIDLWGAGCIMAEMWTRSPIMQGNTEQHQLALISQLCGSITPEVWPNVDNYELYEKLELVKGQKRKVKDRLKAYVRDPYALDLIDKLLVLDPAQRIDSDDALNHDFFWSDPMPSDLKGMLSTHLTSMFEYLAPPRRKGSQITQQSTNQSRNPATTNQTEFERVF
Sequence of CDK9/CyclinT (O60563 whole entry partner): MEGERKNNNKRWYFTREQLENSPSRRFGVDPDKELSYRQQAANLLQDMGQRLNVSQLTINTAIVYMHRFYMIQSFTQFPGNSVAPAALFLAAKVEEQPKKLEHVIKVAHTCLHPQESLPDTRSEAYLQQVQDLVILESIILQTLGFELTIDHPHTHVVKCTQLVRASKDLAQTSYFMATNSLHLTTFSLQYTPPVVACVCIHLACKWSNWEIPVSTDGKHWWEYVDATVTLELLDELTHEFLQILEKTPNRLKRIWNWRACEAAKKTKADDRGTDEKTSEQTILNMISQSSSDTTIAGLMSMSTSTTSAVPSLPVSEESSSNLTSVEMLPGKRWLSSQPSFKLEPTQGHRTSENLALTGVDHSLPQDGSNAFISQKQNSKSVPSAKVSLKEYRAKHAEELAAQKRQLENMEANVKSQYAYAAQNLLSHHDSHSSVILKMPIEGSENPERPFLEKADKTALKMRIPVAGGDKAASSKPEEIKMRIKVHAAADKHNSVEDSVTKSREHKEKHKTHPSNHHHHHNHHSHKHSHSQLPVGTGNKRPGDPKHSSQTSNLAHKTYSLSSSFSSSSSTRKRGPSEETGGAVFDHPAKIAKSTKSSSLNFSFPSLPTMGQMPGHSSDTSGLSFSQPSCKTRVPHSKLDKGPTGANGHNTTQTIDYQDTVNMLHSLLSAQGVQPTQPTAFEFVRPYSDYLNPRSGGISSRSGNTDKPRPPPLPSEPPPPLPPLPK
Procedure: The protein kinases studied were: CDK2/CyclinA, CDK5/p25, CDK9/CyclinT (cyclin-dependent kinases), HASPIN (haploid germ cell-specific nuclear protein kinase), PIM1 (PIM family kinase 1), CLK1 (cdc2-like kinase 1), DYRK1A (dual-specificity tyrosine phosphorylation regulated kinase), CK1δ/ε (casein kinase 1 isoforms), GSK3α/β (glycogen synthase kinase 3) and AURKB (aurora kinase B). Initially, all compounds were first tested at 10 μM. […] Compounds displaying more than 50% inhibition at 10 μM were next tested over a wide range of concentrations (usually 0.01–10 μM), and IC50 values were determined from the dose-response curves (Sigma-Plot).
Kinase activities were assayed in appropriate kinase buffer, with either protein or peptide as substrate in the presence of 10 µM ATP in a final volume of 6 µL using the ADP-Glo^TM assay kit (Promega, Madison, WI, USA, as described in Zegzouti et al. [66]). Controls were performed with appropriate dilutions of dimethylsulfoxide (solvent of the tested compounds).
The buffers used for kinase assays are the following: (A) 10 mM MgCl2, 1 mM EGTA, 1 mM DTT, 25 mM Tris-HCl pH 7.5, 50 µg/mL heparin; (B) 25 mM MOPS, pH 7.2, 12.5 mM -glycerolphosphate, 25 mM MgCl2, 5 mM EGTA, 2 mM EDTA, 0.25 mM DTT.

[19] = system: K562, HL-60, MOLT-4, HEp-2, NCI-H292, HT-29 and MCF-7 tumor cell lines; assay: Cytotoxic screening against the panel of tumor cell lines (MTT); type: cell-based, human; settings: result in words
Procedure: as §2, §3
as §1, with “Plates were left for another 3 h in incubator at 37 °C and at the end of that period the supernatant was aspirated.” left out, “Each sample was tested in triplicate in three independent experiments.” left out

[20] = system: HL-60 cells; assay: Annexin V-FITC/7-AAD test, flow cytometry; type: cell-based, human; settings: 0.11 μM, 72 h
Procedure: Aiming to better study the mechanism of induction of death involved in HL-60 cells after treatment with compounds 3c and 4a, a flow cytometric test was performed after double staining with annexin V-FITC/7-AAD. This assay is based on the ability of annexin V to bind with high affinity to phosphatidylserine which is translocated to the outer membrane of apoptotic cells and the 7-AAD dye binds to the DNA of cells with loss of membrane integrity. Thus, in this test it is possible to identify four distinct populations: viable cells [Annexin V(−) and 7-AAD(−)], initial apoptotic cells [Annexin V(+) and 7-AAD(−)], late apoptotic cells [Annexin V(+) and 7-AAD(+)] and dead cells [Annexin V(−) and 7-AAD (+)] [59].
(§4) HL-60 cells (3 × 10^5) were plated in 24-well plates and treated with the compounds 3c (13 and 26 μM) and 4a (11 and 22 μM) for 72 h at 37 °C with 5% CO2. In all trials, doxorubicin was used as a positive control. After the incubation period, an aliquot of 500 μL of treated and untreated cells suspension was transferred to an Eppendorf tube and centrifuged to remove the supernatant and continue the protocol of the test. In the cell viability and annexin V assays, kits were used, ViaCount kit and guava nexin kit (Guava Technologies), respectively. The protocols performed in these tests followed the manufacturer’s instructions. For to analyze mitochondrial depolarization, rhodamine 123 fluorescent dye was used. In the assay for cell cycle analysis and DNA fragmentation propidium iodide was used. The experiments were performed on Guava EasyCyte HT (Merck-Millipore) flow cytometer, acquiring 5000 events. The data were analyzed in Guava-Soft™ software version 2.7. Three independent experiments were performed in triplicate.

[21] = system: HL-60 cells; assay: Mitochondrial transmembrane potential (rhodamine 123), flow cytometry; type: cell-based, human; settings: 0.11 μM, 72 h
Procedure: In this sense, in order to evaluate if compounds 3c and 4a induce apoptosis by alterating the mitochondria transmembrane potential, this assay was performed by flow cytometry using the fluorochrome rhodamine 123, because this is able to accumulate in cells with unchanged mitochondrial transmembrane potential.
as §4

SMILES | IC50 [1] [µM] | IC50 [2] [µM] | IC50 [3] [µM] | IC50 [4] [µM] | IC50 [5] [µM] | IC50 [6] [µM] | IC50 [7] [µM] | IC50 [8] [µM] | IC50 [9] [µM] | IC50 [10] [µM] | IC50 [11] [µM] | IC50 [12] [µM] | IC50 [13] [µM] | IC50 [14] [µM] | IC50 [15] [µM] | IC50 [16] [µM] | melting point [°C] | IC50 [17] [µM] | IC50 [18] [µM] | also measured
NC(=O)NN=Cc1ccc(Cl)c(Cl)c1 [Compound 3f, 3,4-Dichlorobenzaldehyde Semicarbazone] | > 10 | > 10 | > 100 | > 10 | > 10 | > 10 | > 100 | > 100 | 23.3 ± 1.55 | 8.61 ± 0.35 | 14.2 ± 1.41 | 26.3 ± 1.86 | > 100 | > 10 | > 10 | > 10 | 246 to 247 | > 10 | > 10 | –
CC(C)(C)c1ccc(C=NNC(N)=O)cc1 [Compound 3h, 4-Tert-Butylbenzaldehyde Semicarbazone] | > 10 | > 10 | 49.7 ± 1.06 | 1.9 | > 10 | > 10 | 48.8 ± 0.97 | 47 ± 0.75 | 58.4 ± 1.86 | 42.9 ± 0.75 | > 100 | > 100 | 25.5 ± 1.9 | > 10 | > 10 | > 10 | 216 to 218 | > 10 | > 10 | –
NC(=O)N/N=C/c1ccco1 [Compound 3l, 2-Furfuraldehyde Semicarbazone] | – | – | > 100 | – | – | – | > 100 | > 100 | > 100 | > 100 | > 100 | > 100 | > 100 | – | – | – | 202 to 204 | – | – | antiproliferative activity against the tested cell lines [19]: inactive
COc1cccc2c1C(=O)c1c(O)c3c(c(O)c1C2=O)C[C@@](O)(C(=O)CO)C[C@@H]3O[C@H]1C[C@H](N)[C@H](O)[C@H](C)O1 [Doxo, doxorubicin, reference compound] | – | – | 5.33 ± 0.62 | – | – | – | 0.18 ± 0.02 | 0.73 ± 0.09 | 0.2 ± 0.03 | 1.28 ± 0.11 | 0.11 ± 0.01 | 1.47 ± 0.09 | 0.73 ± 0.08 | – | – | – | – | – | – | cells in initial apoptosis [Annexin V(+) and 7-AAD(−)] [20]: 23.7%; cells in late apoptosis [Annexin V(+) and 7-AAD(+)] [20]: 19%; depolarized cells [21]: 41.8%
